#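 Abbreviation: GI50, concentration required for 50% inhibition of growth. TGI: total growth inhibition.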
# Key:
# Assay in all cases: NCI-60 cell line screen, 384-well format
# SNB-19 CNS = tested on: SNB-19 CNS
# MALME-3M melanoma = tested on: MALME-3M melanoma
# HCC-2998 colon = tested on: HCC-2998 colon
# HT29 colon = tested on: HT29 colon
# HOP-62 NSCLC = tested on: HOP-62 NSCLC
# OVCAR-5 ovarian = tested on: OVCAR-5 ovarian
# PC-3 prostate = tested on: PC-3 prostate
# OVCAR-4 ovarian = tested on: OVCAR-4 ovarian
# SK-MEL-28 melanoma = tested on: SK-MEL-28 melanoma
# HCT-15 colon = tested on: HCT-15 colon
# NCI-H460 NSCLC = tested on: NCI-H460 NSCLC
# 786-0 renal = tested on: 786-0 renal
# A549 NSCLC = tested on: A549 NSCLC
# SF-539 CNS = tested on: SF-539 CNS
# MOLT-4 leukemia = tested on: MOLT-4 leukemia
# SN12C renal = tested on: SN12C renal
# HCT-116 colon = tested on: HCT-116 colon
# BT-549 breast = tested on: BT-549 breast
# UO-31 renal = tested on: UO-31 renal
# SF-268 CNS = tested on: SF-268 CNS
# TK-10 renal = tested on: TK-10 renal
# CAKI-1 renal = tested on: CAKI-1 renal
# MCF7 breast = tested on: MCF7 breast
# M14 melanoma = tested on: M14 melanoma
# OVCAR-8 ovarian = tested on: OVCAR-8 ovarian
# SF-295 CNS = tested on: SF-295 CNS
# SNB-75 CNS = tested on: SNB-75 CNS
# NCI-H23 lung = tested on: NCI-H23 lung
# ACHN renal = tested on: ACHN renal
# COLO 205 colon = tested on: COLO 205 colon
# LOX IMVI melanoma = tested on: LOX IMVI melanoma
# HL-60(TB) leukemia = tested on: HL-60(TB) leukemia
# UACC-62 melanoma = tested on: UACC-62 melanoma
# UACC-257 melanoma = tested on: UACC-257 melanoma
# NCI/ADR-RES ovarian = tested on: NCI/ADR-RES ovarian
# SW-620 colon = tested on: SW-620 colon
# CCRF-CEM leukemia = tested on: CCRF-CEM leukemia
# SK-MEL-5 melanoma = tested on: SK-MEL-5 melanoma
# SK-OV-3 ovarian = tested on: SK-OV-3 ovarian
# IGROV1 ovarian = tested on: IGROV1 ovarian
# NCI-H522 lung = tested on: NCI-H522 lung
# MDA-MB-468 breast = tested on: MDA-MB-468 breast
# SK-MEL-2 melanoma = tested on: SK-MEL-2 melanoma
# T-47D breast = tested on: T-47D breast
# OVCAR-3 ovarian = tested on: OVCAR-3 ovarian
# RXF 393 renal = tested on: RXF 393 renal
# U251 glioblastoma = tested on: U251 glioblastoma
compound,measurement,setting,value
CN(C)C(=O)c1cc2cnc(Nc3ccc(N4CCNCC4)cn3)nc2n1C1CCCC1,GI50,SNB-19 CNS,> 67.7 µM
same,TGI,SNB-19 CNS,> 100 µM
same,GI50,MALME-3M melanoma,11.1 µM
same,TGI,MALME-3M melanoma,31.2 µM
same,GI50,HCC-2998 colon,29.2 µM
same,TGI,HCC-2998 colon,> 100 µM
same,GI50,HT29 colon,24.9 µM
same,TGI,HT29 colon,> 51.6 µM
same,GI50,HOP-62 NSCLC,29.2 µM
same,TGI,HOP-62 NSCLC,67.6 µM
same,GI50,OVCAR-5 ovarian,10.8 µM
same,TGI,OVCAR-5 ovarian,85.3 µM
same,GI50,PC-3 prostate,17.8 µM
same,TGI,PC-3 prostate,> 80.5 µM
same,GI50,OVCAR-4 ovarian,30.4 µM
same,TGI,OVCAR-4 ovarian,> 94 µM
same,GI50,SK-MEL-28 melanoma,37.5 µM
same,TGI,SK-MEL-28 melanoma,> 66 µM
same,GI50,HCT-15 colon,28.8 µM
same,TGI,HCT-15 colon,> 75.4 µM
same,GI50,NCI-H460 NSCLC,12.3 µM
same,TGI,NCI-H460 NSCLC,> 61.5 µM
same,GI50,786-0 renal,6.77 µM
same,TGI,786-0 renal,36 µM
same,GI50,A549 NSCLC,23.5 µM
same,TGI,A549 NSCLC,> 84.1 µM
same,GI50,SF-539 CNS,22.2 µM
same,TGI,SF-539 CNS,68.2 µM
same,GI50,MOLT-4 leukemia,0.73 µM
same,TGI,MOLT-4 leukemia,6.31 µM
same,GI50,SN12C renal,20.3 µM
same,TGI,SN12C renal,> 73.2 µM
same,GI50,HCT-116 colon,7.55 µM
same,TGI,HCT-116 colon,23.5 µM
same,GI50,BT-549 breast,20.2 µM
same,TGI,BT-549 breast,58.9 µM
same,GI50,UO-31 renal,13.8 µM
same,TGI,UO-31 renal,> 100 µM
same,GI50,SF-268 CNS,24.8 µM
same,TGI,SF-268 CNS,46.6 µM
same,GI50,TK-10 renal,27.3 µM
same,TGI,TK-10 renal,> 100 µM
same,GI50,CAKI-1 renal,8.2 µM
same,TGI,CAKI-1 renal,63.6 µM
same,GI50,MCF7 breast,23.3 µM
same,TGI,MCF7 breast,40.7 µM
same,GI50,M14 melanoma,30.2 µM
same,TGI,M14 melanoma,> 89.2 µM
same,GI50,OVCAR-8 ovarian,37.5 µM
same,TGI,OVCAR-8 ovarian,74.9 µM
same,GI50,SF-295 CNS,23.1 µM
same,TGI,SF-295 CNS,57.4 µM
same,GI50,SNB-75 CNS,24.5 µM
same,TGI,SNB-75 CNS,55 µM
same,GI50,NCI-H23 lung,25.3 µM
same,TGI,NCI-H23 lung,61.1 µM
same,GI50,ACHN renal,5.81 µM
same,TGI,ACHN renal,46.7 µM
same,GI50,COLO 205 colon,7.64 µM
same,TGI,COLO 205 colon,30.1 µM
same,GI50,LOX IMVI melanoma,8.51 µM
same,TGI,LOX IMVI melanoma,47.9 µM
same,GI50,HL-60(TB) leukemia,0.866 µM
same,TGI,HL-60(TB) leukemia,26.3 µM
same,GI50,UACC-62 melanoma,18.2 µM
same,TGI,UACC-62 melanoma,> 63.7 µM
same,GI50,UACC-257 melanoma,47.6 µM
same,TGI,UACC-257 melanoma,> 69.7 µM
same,GI50,NCI/ADR-RES ovarian,> 100 µM
same,TGI,NCI/ADR-RES ovarian,> 100 µM
same,GI50,SW-620 colon,9.02 µM
same,TGI,SW-620 colon,> 65.6 µM
same,GI50,CCRF-CEM leukemia,2.39 µM
same,TGI,CCRF-CEM leukemia,> 34.4 µM
same,GI50,SK-MEL-5 melanoma,28 µM
same,TGI,SK-MEL-5 melanoma,> 97.1 µM
same,GI50,SK-OV-3 ovarian,> 80.2 µM
same,TGI,SK-OV-3 ovarian,> 100 µM
same,GI50,IGROV1 ovarian,26.2 µM
same,TGI,IGROV1 ovarian,98.8 µM
same,GI50,NCI-H522 lung,29.5 µM
same,TGI,NCI-H522 lung,82.2 µM
same,GI50,MDA-MB-468 breast,> 59.3 µM
same,TGI,MDA-MB-468 breast,> 100 µM
same,GI50,SK-MEL-2 melanoma,16.8 µM
same,TGI,SK-MEL-2 melanoma,35.7 µM
same,GI50,T-47D breast,9.8 µM
same,TGI,T-47D breast,> 46.4 µM
same,GI50,OVCAR-3 ovarian,33.1 µM
same,TGI,OVCAR-3 ovarian,61.7 µM
same,GI50,RXF 393 renal,17.5 µM
same,TGI,RXF 393 renal,31 µM
same,GI50,U251 glioblastoma,30.8 µM
same,TGI,U251 glioblastoma,> 46.4 µM
COc1cc2nccc(Oc3ccc(NC(=O)C4(C(=O)Nc5ccc(F)cc5)CC4)cc3)c2cc1OC,GI50,SNB-19 CNS,7.3 µM
same,TGI,SNB-19 CNS,> 55.2 µM
same,GI50,MALME-3M melanoma,2 µM
same,TGI,MALME-3M melanoma,5.44 µM
same,GI50,HCC-2998 colon,5.73 µM
same,TGI,HCC-2998 colon,14 µM
same,GI50,HT29 colon,3.17 µM
same,TGI,HT29 colon,12.3 µM
same,GI50,HOP-62 NSCLC,5.16 µM
same,TGI,HOP-62 NSCLC,24.2 µM
same,GI50,OVCAR-5 ovarian,2.96 µM
same,TGI,OVCAR-5 ovarian,10.7 µM
same,GI50,PC-3 prostate,3.8 µM
same,TGI,PC-3 prostate,15.4 µM
same,GI50,OVCAR-4 ovarian,4.01 µM
same,TGI,OVCAR-4 ovarian,13.1 µM
same,GI50,SK-MEL-28 melanoma,3.01 µM
same,TGI,SK-MEL-28 melanoma,11.3 µM
same,GI50,HCT-15 colon,3.22 µM
same,TGI,HCT-15 colon,10.4 µM
same,GI50,NCI-H460 NSCLC,3.14 µM
same,TGI,NCI-H460 NSCLC,9.27 µM
same,GI50,786-0 renal,4.47 µM
same,TGI,786-0 renal,19 µM
same,GI50,A549 NSCLC,2.46 µM
same,TGI,A549 NSCLC,6.13 µM
same,GI50,SF-539 CNS,1.32 µM
same,TGI,SF-539 CNS,4.74 µM
same,GI50,MOLT-4 leukemia,1.55 µM
same,TGI,MOLT-4 leukemia,3.62 µM
same,GI50,SN12C renal,0.372 µM
same,TGI,SN12C renal,4.71 µM
same,GI50,HCT-116 colon,3.78 µM
same,TGI,HCT-116 colon,14.2 µM
same,GI50,BT-549 breast,4.15 µM
same,TGI,BT-549 breast,12.9 µM
same,GI50,UO-31 renal,3.16 µM
same,TGI,UO-31 renal,9.08 µM
same,GI50,SF-268 CNS,3.68 µM
same,TGI,SF-268 CNS,12.4 µM
same,GI50,TK-10 renal,7.66 µM
same,TGI,TK-10 renal,33.7 µM
same,GI50,CAKI-1 renal,2.62 µM
same,TGI,CAKI-1 renal,9.96 µM
same,GI50,MCF7 breast,3.55 µM
same,TGI,MCF7 breast,11.1 µM
same,GI50,M14 melanoma,2.67 µM
same,TGI,M14 melanoma,7.03 µM
same,GI50,OVCAR-8 ovarian,3.88 µM
same,TGI,OVCAR-8 ovarian,14.6 µM
same,GI50,SF-295 CNS,1.08 µM
same,TGI,SF-295 CNS,6.02 µM
same,GI50,SNB-75 CNS,1.29 µM
same,TGI,SNB-75 CNS,4.35 µM
same,GI50,NCI-H23 lung,1.34 µM
same,TGI,NCI-H23 lung,6.54 µM
same,GI50,ACHN renal,3.54 µM
same,TGI,ACHN renal,16 µM
same,GI50,COLO 205 colon,2.14 µM
same,TGI,COLO 205 colon,4.97 µM
same,GI50,LOX IMVI melanoma,3.24 µM
same,TGI,LOX IMVI melanoma,9.47 µM
same,GI50,HL-60(TB) leukemia,2.71 µM
same,TGI,HL-60(TB) leukemia,5.24 µM
same,GI50,UACC-62 melanoma,2.23 µM
same,TGI,UACC-62 melanoma,6.52 µM
same,GI50,UACC-257 melanoma,4.62 µM
same,TGI,UACC-257 melanoma,12.6 µM
same,GI50,NCI/ADR-RES ovarian,2.52 µM
same,TGI,NCI/ADR-RES ovarian,9.33 µM
same,GI50,SW-620 colon,2.13 µM
same,TGI,SW-620 colon,5.57 µM
same,GI50,CCRF-CEM leukemia,1.96 µM
same,TGI,CCRF-CEM leukemia,3.52 µM
same,GI50,SK-MEL-5 melanoma,2.19 µM
same,TGI,SK-MEL-5 melanoma,6.58 µM
same,GI50,SK-OV-3 ovarian,4.97 µM
same,TGI,SK-OV-3 ovarian,15.8 µM
same,GI50,IGROV1 ovarian,1.64 µM
same,TGI,IGROV1 ovarian,3.8 µM
same,GI50,NCI-H522 lung,2.79 µM
same,TGI,NCI-H522 lung,7.77 µM
same,GI50,MDA-MB-468 breast,3.67 µM
same,TGI,MDA-MB-468 breast,9.4 µM
same,GI50,SK-MEL-2 melanoma,3.07 µM
same,TGI,SK-MEL-2 melanoma,7.42 µM
same,GI50,T-47D breast,2.78 µM
same,TGI,T-47D breast,10 µM
same,GI50,OVCAR-3 ovarian,3.36 µM
same,TGI,OVCAR-3 ovarian,10.2 µM
same,GI50,RXF 393 renal,2.73 µM
same,TGI,RXF 393 renal,5.49 µM
same,GI50,U251 glioblastoma,5.32 µM
same,TGI,U251 glioblastoma,17.9 µM

# From PubChem BioAssay (NCI)
